Experimental data published in paper PMC4011867 (PLoS ONE, 2014).
Like-named read-outs stand apart in the source and are kept apart here.

Experiments:
Parameters in all cases: species or system Acyrthosiphon pisum
[1] = biological target: T1, A. pisum native nAChRs, [3H]-imidacloprid binding sites (alpha-Bgt-insensitive); assay: [3H]-IMI competition binding, filtration; details: 25 nM [3H]-IMI, 10 mM Tris-HCl pH 7.4, room temperature, 4 h, low-affinity site; for Ki: Cheng-Prusoff, read-out: [^3H]-IMI / % of high affinity / Ki; for IC50: read-out: [^3H]-IMI / Bmax (fmol/mg) / IC50
T1 construct: gene Apisumα1
Description: [3H]-IMI competition binding, filtration on A. pisum native nAChRs, [3H]-imidacloprid binding sites (alpha-Bgt-insensitive)

[2] = biological target: T2, A. pisum native nAChRs, [125I]-alpha-bungarotoxin binding sites (alpha-Bgt-sensitive); details: PBS pH 7.2, 0.1% BSA, room temperature, 4 h, low-affinity site, Cheng-Prusoff, table header prints nM, text and IC50 support µM
T2 construct: gene Apisumα1

[3] = biological target: T1, A. pisum native nAChRs, [3H]-imidacloprid binding sites (alpha-Bgt-insensitive); assay: [3H]-IMI saturation binding, filtration; details: 10 mM Tris-HCl pH 7.4, room temperature, 4 h; high-affinity site of two-site fit; labelled compound; read-out: [^3H]-IMI / Kd (nM) / assay level
Description: [3H]-IMI saturation binding, filtration on A. pisum native nAChRs, [3H]-imidacloprid binding sites (alpha-Bgt-insensitive)

[4] = apparent Ki, possibly not strictly competitive
[5] = possibly not strictly competitive

| Compound | Ki [1, 4] | IC50 [1, 5] | Ki ([2]; 0.08 nM [125I]-alpha-Bgt) | Ki [1] | IC50 [1] | Kd [3] | Ki ([2]; 0.6 nM [125I]-alpha-Bgt) |
| --- | --- | --- | --- | --- | --- | --- | --- |
| CN/C(=N\[N+](=O)[O-])NCc1cnc(Cl)s1 [clothianidin] | 127 ± 42.5 nM | 203 ± 68 nM | 180 ± 50 nM |  |  |  |  |
| O=[N+]([O-])N=C1NCCN1Cc1ccc(Cl)nc1 [imidacloprid] |  |  |  | 38.1 ± 6.88 nM | 61 ± 11 nM | 0.16 ± 0.04 nM | 14600 ± 1130 nM |
| CN1COCN(Cc2cnc(Cl)s2)C1=N[N+](=O)[O-] [thiamethoxam] | 1050 ± 63.1 nM | 1680 ± 101 nM | 1530 ± 650 nM |  |  |  |  |
